Reference: ChEMBL document CHEMBL1201862, “PubChem BioAssay data set” (2004)
Activity calls are given as the source filed them.

Legend:
[1] = Luminescence Cell-Based Dose Response HTS to Identify Inhibitors of 5'UTR Stem-Loop Driven Prion Protein mRNA Translation in H4 Neuroglioblastoma Cells. [Related pubchem assays: 1827 (Project Summary), 1813 (Primary HTS)]; assay type: functional
[2] = alpha-synuclein stem-loop luciferase translation blockers – H4 neuroglioma cells, luminescence, confirmation (AID 1988); assay type: functional, cell-based
HEK293 = test: EBV LMP1 TES2 canonical NF-kB signalling blockers – cell-based, HEK293, luciferase, cherry-pick, dose response (AID 588343); assay type: functional; settings: Homo sapiens
[3] = target: T1, Latent membrane protein 1 (Human herpesvirus 4 (strain B95-8), UniProt P03230); test: LMP1 TES1 pathway selectivity over dsRED control – imaging, HEK293T, dual-color eGFP/dsRED, cherry-picks, selectivity assay for LMP1 NF-kB inhibitor project, dose response (AID 588398); assay type: functional, cell-based
T1 sequence (P03230 whole entry): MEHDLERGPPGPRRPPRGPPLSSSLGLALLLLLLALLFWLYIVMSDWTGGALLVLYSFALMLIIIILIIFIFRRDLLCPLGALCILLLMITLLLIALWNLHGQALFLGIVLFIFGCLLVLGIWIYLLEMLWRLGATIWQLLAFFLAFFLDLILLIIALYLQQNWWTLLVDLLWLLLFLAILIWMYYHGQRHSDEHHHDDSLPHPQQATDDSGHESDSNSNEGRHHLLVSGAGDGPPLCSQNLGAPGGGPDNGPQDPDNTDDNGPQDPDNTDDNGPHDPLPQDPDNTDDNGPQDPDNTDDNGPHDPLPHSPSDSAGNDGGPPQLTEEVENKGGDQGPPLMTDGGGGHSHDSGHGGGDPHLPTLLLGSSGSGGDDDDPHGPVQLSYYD

[4] = target: Tyrosine-protein phosphatase non-receptor type 5 (Homo sapiens, UniProt P54829); test: PTPN5 enzyme inhibition – biochemical, fluorescence intensity, uHTS hits, confirmation (AID 602372); assay type: functional; settings: read-out: IC50_Mean
Sequence of Tyrosine-protein phosphatase non-receptor type 5 (P54829 whole entry): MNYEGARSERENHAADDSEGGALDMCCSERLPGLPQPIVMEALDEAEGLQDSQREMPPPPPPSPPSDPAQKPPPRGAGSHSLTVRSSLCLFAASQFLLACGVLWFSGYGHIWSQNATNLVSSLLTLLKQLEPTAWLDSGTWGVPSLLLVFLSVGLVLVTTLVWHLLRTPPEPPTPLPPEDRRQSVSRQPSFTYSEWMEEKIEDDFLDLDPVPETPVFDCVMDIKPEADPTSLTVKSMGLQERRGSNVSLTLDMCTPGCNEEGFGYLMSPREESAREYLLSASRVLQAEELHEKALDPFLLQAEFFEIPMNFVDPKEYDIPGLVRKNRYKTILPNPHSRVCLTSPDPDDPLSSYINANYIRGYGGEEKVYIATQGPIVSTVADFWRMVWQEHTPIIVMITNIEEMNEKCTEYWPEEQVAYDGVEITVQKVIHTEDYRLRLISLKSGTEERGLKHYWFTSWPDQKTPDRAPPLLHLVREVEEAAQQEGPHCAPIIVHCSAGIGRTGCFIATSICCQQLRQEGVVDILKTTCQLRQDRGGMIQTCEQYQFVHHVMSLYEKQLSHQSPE

[5] = target: Dual specificity protein phosphatase 3 (Homo sapiens, UniProt P51452); test: VHR phosphatase inhibition, dose response, selectivity assay for STEP inhibitor project, biochemical (AID 602374); assay type: functional; settings: read-out: IC50_Mean
Sequence of Dual specificity protein phosphatase 3 (P51452 whole entry): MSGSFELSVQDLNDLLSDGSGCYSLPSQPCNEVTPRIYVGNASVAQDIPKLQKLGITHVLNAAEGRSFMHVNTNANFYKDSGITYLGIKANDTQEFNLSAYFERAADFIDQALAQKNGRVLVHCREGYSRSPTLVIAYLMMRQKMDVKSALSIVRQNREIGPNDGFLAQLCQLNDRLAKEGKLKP

Cytochrome P450 3A4 = Cytochrome P450 3A4 (Homo sapiens, UniProt P08684);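 also: CYP3A4 tested as one member of a cytochrome P450 panel screen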
Sequence of Cytochrome P450 3A4 (P08684 whole entry): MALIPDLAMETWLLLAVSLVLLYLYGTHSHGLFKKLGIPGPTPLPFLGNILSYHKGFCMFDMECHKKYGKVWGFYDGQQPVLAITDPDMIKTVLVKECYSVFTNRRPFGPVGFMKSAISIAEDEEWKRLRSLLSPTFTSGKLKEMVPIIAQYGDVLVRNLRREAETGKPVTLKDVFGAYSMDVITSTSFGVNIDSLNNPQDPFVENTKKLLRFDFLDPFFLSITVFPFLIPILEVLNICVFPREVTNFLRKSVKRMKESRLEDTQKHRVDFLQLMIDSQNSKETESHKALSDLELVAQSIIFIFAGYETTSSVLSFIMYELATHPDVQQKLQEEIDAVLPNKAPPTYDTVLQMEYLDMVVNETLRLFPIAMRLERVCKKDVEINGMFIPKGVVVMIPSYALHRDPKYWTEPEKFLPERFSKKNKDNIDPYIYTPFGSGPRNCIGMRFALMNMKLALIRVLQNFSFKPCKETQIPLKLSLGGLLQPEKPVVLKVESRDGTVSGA

[6] = target: Tyrosine-protein phosphatase non-receptor type 11 (Homo sapiens, UniProt Q06124); test: PTPN11 enzyme inhibitors – biochemical, selectivity assay for STEP inhibitor project, dose response (AID 602367); assay type: functional; settings: read-out: IC50_Mean
Sequence of Tyrosine-protein phosphatase non-receptor type 11 (Q06124 whole entry): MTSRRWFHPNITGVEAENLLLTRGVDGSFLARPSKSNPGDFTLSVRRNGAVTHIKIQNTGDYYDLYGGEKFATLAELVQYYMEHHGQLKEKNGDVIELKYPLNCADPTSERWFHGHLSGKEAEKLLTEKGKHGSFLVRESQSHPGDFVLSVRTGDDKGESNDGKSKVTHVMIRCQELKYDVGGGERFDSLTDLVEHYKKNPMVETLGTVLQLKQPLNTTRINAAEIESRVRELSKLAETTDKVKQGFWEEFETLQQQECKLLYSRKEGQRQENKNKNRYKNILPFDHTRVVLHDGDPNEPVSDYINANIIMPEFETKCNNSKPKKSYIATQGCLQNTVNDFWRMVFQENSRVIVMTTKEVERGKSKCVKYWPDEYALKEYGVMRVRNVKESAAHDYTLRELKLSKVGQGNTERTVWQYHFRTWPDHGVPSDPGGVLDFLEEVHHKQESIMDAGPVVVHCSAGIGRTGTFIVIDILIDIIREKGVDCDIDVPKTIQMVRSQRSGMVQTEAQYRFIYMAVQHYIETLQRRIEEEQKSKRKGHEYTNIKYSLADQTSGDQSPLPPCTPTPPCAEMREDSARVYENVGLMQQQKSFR

[7] = target: 72 kDa type IV collagenase (Homo sapiens, UniProt P08253); test: Dose Response validation of uHTS RPN11 inhibitor hits using a MMP-2 Fluorescence assay.; assay type: functional
Sequence of 72 kDa type IV collagenase (P08253 whole entry): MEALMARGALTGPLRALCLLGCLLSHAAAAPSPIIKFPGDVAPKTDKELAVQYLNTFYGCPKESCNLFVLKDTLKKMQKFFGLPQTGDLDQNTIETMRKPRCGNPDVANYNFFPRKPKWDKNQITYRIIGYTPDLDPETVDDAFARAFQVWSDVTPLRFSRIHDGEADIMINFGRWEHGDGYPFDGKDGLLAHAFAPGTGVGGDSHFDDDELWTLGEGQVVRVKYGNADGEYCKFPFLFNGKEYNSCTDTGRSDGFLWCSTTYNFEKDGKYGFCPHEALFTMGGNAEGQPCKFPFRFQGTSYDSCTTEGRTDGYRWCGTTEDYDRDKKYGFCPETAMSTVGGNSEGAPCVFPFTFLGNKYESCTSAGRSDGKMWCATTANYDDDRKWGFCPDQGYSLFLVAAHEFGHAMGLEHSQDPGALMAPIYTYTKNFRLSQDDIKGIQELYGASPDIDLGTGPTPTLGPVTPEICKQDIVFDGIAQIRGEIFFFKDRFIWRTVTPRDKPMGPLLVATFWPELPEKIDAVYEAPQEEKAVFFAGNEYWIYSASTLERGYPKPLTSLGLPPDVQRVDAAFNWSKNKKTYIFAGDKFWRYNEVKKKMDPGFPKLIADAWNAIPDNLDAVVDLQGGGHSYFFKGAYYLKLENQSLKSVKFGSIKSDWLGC

Prothrombin = Prothrombin (Bos taurus, UniProt P00735); test: thrombin protease inhibitors – biochemical, fluorescence polarization, uHTS hits, dose response (AID 602369); assay type: functional
[8] = target: 26S proteasome non-ATPase regulatory subunit 14 (Homo sapiens, UniProt O00487); test: inhibition of proteasome subunit RPN11 – biochemical, fluorescence polarization, uHTS hits, confirmation (AID 602368); assay type: functional
Sequence of 26S proteasome non-ATPase regulatory subunit 14 (O00487 whole entry): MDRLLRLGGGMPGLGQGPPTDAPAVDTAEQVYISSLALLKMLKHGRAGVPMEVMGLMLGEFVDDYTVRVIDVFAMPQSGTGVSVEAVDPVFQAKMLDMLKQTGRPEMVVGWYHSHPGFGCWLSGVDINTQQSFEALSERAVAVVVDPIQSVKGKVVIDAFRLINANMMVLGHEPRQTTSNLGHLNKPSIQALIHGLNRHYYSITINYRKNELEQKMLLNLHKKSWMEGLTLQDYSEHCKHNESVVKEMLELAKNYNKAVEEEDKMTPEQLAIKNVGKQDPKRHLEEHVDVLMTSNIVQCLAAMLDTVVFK

Large T antigen = Large T antigen (Simian virus 40, UniProt P03070); assay type: functional, Betapolyomavirus macacae;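 also: Confirmatory-stage PubChem screen for compounds that inhibit SV40 T antigen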
Sequence of Large T antigen (P03070 whole entry): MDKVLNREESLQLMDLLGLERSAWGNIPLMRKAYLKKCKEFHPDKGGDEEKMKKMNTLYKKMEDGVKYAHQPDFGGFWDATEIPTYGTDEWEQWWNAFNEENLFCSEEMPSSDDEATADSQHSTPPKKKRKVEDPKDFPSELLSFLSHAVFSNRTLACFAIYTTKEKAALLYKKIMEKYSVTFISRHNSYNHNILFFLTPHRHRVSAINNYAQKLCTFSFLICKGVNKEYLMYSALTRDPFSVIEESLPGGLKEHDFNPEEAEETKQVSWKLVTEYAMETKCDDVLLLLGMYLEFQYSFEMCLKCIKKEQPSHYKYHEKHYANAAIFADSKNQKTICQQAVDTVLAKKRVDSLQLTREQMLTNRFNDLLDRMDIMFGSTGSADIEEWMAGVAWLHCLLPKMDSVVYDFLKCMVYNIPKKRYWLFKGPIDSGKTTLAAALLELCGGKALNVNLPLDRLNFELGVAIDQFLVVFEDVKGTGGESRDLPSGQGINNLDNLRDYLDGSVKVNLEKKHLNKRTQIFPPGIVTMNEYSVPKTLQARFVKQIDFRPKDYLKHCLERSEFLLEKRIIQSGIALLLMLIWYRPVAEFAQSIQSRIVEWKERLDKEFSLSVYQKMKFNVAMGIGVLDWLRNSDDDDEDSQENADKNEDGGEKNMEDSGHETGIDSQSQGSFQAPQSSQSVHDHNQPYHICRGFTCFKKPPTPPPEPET

[9] = blockers of CRF-binding protein–CRF-R2 complex – cell-based, uHTS hits, 384-well, dose response (AID 651639); assay type: functional, Homo sapiens; settings: read-out: IC50_Mean
[10] = target: T2, Corticotropin-releasing factor receptor 2/Corticotropin-releasing factor-binding protein (Homo sapiens, UniProt P24387+Q13324); test: Dose Response confirmation of uHTS hits for small molecule antagonists of the CRF-binding protein and CRF-R2 receptor complex.; assay type: functional; settings: read-out: IC50_Mean
T2 sequence (Q13324 whole entry): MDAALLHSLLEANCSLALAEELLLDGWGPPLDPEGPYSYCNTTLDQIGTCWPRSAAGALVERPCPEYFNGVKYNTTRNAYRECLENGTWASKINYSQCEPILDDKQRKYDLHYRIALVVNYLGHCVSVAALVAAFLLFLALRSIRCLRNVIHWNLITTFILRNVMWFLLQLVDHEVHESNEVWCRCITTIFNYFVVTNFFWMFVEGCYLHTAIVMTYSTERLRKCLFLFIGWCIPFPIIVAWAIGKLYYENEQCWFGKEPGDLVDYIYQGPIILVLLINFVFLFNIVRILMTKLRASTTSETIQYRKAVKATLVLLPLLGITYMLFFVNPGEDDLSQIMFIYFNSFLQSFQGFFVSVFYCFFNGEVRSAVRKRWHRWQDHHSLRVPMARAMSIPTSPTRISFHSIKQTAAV
T2 sequence (P24387 whole entry): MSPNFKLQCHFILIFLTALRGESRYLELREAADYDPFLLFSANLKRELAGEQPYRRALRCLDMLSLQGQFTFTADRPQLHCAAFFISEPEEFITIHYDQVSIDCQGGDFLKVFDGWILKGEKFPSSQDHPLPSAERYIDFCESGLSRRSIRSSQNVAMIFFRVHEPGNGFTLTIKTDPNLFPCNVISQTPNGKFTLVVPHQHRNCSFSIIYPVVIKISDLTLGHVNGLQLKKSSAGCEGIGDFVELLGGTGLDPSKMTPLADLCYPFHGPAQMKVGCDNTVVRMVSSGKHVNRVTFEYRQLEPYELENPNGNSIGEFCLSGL

[11] = target: T2, Corticotropin-releasing factor receptor 2/Corticotropin-releasing factor-binding protein; test: activators of CRF receptor 2 with binding protein – uHTS hits, confirmation (AID 602473); assay type: functional; settings: read-out: EC50_Mean
[12] = target: Photoreceptor-specific nuclear receptor (Homo sapiens, UniProt Q9Y5X4); assay type: functional, cell-based;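 also: CHO-S cells with Gal4-NCOR and VP16-NR2E3 two-hybrid luciferase reporter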
Sequence of Photoreceptor-specific nuclear receptor (Q9Y5X4 whole entry, the tested form may be a part): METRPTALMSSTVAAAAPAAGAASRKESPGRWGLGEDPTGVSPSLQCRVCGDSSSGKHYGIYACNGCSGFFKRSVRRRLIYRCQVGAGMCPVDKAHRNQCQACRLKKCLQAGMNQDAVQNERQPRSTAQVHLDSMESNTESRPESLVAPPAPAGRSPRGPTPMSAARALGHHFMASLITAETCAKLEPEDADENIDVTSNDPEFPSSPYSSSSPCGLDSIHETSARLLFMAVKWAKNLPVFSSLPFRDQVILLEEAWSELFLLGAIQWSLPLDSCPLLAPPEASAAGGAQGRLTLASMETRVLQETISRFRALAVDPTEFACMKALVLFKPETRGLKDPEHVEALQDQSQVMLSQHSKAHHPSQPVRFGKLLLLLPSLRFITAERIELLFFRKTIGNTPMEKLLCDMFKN

[13] = NIH3T3 cell viability loss – ATP luminescence, mouse fibroblasts, counter-screen, dose response (AID 2010); assay type: functional, cell-based;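 also: cells exposed to compound for about 90 hours before reading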
[14] = Trypanosoma cruzi growth suppression in host cells – NIH3T3 host cells, beta-gal luminescence, confirmation (AID 2044); assay type: functional, cell-based;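 also: intracellular parasites grown in NIH/3T3 mouse fibroblasts as host cells; luminescent beta-galactosidase reporter signal from transgenic T. cruzi replicating inside host cells; inhibitors lower the luminescence signal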
[15] = target: T3, Apoptotic protease-activating factor 1 (Homo sapiens, UniProt O14727); assay type: functional
T3 sequence (O14727 whole entry): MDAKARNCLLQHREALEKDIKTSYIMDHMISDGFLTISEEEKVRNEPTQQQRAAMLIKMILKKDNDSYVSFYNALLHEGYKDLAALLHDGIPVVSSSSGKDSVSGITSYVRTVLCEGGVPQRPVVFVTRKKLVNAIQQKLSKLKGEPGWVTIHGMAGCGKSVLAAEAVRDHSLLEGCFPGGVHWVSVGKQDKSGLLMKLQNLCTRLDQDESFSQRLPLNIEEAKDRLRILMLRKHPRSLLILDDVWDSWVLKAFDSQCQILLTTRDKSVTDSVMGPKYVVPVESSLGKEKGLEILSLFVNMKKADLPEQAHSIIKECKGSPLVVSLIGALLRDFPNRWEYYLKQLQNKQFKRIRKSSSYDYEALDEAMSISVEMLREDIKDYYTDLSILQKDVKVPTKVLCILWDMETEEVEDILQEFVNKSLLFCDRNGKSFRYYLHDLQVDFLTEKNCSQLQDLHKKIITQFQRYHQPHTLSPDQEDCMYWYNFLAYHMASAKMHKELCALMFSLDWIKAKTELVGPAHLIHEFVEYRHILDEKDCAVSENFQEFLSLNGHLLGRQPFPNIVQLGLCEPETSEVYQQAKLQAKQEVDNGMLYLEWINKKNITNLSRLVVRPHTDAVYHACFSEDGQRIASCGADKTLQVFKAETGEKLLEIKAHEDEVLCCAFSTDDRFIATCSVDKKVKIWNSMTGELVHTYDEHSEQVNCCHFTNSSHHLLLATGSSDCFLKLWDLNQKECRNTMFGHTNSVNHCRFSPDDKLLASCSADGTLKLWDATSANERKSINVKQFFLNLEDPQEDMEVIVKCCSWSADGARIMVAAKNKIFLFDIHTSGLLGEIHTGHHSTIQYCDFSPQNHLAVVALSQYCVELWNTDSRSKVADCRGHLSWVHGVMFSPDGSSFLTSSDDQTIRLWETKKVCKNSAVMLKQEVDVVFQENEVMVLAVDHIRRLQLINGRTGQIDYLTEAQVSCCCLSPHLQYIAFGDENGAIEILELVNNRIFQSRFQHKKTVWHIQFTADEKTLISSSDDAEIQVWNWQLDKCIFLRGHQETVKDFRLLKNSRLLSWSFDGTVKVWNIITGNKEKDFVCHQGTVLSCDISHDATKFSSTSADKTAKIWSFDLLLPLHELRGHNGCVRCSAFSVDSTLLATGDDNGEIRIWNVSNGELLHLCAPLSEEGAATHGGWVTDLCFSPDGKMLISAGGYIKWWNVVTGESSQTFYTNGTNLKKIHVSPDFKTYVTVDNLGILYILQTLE

[16] = viability of uninfected HEp-2 cells – cell-based, HTS, cytotoxicity control for RSV inhibitor project, dose response (AID 2410); assay type: functional; settings: human respiratory syncytial virus
[17] = target: Potassium voltage-gated channel subfamily KQT member 2 (Rattus norvegicus, UniProt O88943); test: blockers of KCNQ2 channel current – cell-based, automated electrophysiology, set II, rat KCNQ2, dose response (AID 588637); assay type: functional
Sequence of Potassium voltage-gated channel subfamily KQT member 2 (O88943 whole entry): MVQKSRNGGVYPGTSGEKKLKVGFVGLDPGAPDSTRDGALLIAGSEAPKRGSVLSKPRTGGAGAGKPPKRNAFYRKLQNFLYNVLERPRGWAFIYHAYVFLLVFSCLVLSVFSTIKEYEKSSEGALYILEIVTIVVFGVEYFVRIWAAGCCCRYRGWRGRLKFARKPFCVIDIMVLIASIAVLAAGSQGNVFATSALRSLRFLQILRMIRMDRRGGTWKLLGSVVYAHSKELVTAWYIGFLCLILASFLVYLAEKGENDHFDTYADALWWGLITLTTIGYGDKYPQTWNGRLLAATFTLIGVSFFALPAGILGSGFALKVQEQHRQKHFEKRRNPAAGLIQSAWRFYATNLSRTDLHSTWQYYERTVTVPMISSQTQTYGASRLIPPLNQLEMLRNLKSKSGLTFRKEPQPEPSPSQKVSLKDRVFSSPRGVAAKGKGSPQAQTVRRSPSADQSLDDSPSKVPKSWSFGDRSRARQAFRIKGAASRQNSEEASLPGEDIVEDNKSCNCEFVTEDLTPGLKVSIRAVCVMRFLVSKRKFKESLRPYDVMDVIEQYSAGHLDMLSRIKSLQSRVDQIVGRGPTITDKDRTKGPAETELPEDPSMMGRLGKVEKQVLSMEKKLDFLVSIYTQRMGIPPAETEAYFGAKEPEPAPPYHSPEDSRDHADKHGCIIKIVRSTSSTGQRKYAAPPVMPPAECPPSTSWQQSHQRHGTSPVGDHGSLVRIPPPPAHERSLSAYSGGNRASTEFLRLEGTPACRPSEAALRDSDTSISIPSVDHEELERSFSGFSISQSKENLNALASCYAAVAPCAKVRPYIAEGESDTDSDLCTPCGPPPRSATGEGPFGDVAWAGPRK

Streptococcus = test: GAS UMAA2166 growth inhibition – luminescence, BacTiterGlo, counter-screen for streptokinase expression inhibitor project, dose response (AID 1915); assay type: functional, organism-based;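 also: potency for reduction of bacterial viability or growth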
Streptokinase A = target: T4, Streptokinase A (Streptococcus pyogenes serotype M1, UniProt P10520); test: viability-normalized secreted streptokinase activity reduction – plasminogen activation absorbance, OD405, dose response (AID 1914); assay type: functional, Streptococcus pyogenes M1 GAS;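 also: secreted streptokinase activity via plasminogen activation per viability signal from cell pellet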
T4 sequence (P10520 whole entry): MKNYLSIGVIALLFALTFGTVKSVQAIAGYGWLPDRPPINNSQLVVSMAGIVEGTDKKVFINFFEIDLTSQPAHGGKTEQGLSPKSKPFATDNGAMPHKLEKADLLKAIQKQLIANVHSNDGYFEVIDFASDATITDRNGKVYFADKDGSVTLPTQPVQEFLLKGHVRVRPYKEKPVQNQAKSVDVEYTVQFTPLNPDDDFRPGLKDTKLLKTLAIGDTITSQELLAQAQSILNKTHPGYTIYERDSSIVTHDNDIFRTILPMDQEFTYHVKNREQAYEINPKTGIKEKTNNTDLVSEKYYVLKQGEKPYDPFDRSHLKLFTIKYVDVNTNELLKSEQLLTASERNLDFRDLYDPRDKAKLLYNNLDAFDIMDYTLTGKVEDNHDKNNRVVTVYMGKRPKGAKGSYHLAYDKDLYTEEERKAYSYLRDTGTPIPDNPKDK

[18] = system: Streptococcus sp. 'group A'; test: Streptococcus pyogenes SK(-)GAS viability under kanamycin – luminescence, BacTiterGlo, confirmation, counter-screen for streptokinase expression inhibitor project, dose response (AID 1900); assay type: functional, organism-based
Cysteine protease ATG4B = target: T5, Cysteine protease ATG4B (Homo sapiens, UniProt Q9Y4P1); assay type: functional;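 also: Fluorescence-based dose-response confirmation assay measuring inhibition of ATG4B activity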
T5 sequence (Q9Y4P1 whole entry): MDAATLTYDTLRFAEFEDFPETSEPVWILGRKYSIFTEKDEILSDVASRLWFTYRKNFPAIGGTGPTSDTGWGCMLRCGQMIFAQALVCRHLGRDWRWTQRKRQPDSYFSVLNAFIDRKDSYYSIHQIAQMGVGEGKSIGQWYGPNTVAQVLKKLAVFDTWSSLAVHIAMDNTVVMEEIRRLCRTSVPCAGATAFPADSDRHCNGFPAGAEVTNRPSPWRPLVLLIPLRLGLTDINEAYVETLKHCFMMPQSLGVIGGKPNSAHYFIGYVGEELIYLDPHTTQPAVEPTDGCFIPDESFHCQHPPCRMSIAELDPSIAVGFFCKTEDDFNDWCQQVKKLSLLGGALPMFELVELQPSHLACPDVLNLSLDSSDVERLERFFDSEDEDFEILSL

[19] = NIH-3T3 fibroblast cytotoxicity, dose response, cytotoxicity control, cell-based, fluorescence, Alamar Blue, secondary assay (AID 2327); assay type: functional;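 also: NIH-3T3 mouse fibroblasts cultured with fluconazole at 8 µg/mL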
[20] = fluconazole-exposed Candida albicans growth modulators – fluorescence, retest, confirmation (AID 2467); assay type: functional, cell-based
Phospholipase A2 = Phospholipase A2 (Homo sapiens, UniProt P04054); assay type: functional;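 also: confirmatory dose-response counterscreen on phospholipase A2, testing hits that came from an ultra-high-throughput screen for ATG4B inhibitors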
Sequence of Phospholipase A2 (P04054 whole entry): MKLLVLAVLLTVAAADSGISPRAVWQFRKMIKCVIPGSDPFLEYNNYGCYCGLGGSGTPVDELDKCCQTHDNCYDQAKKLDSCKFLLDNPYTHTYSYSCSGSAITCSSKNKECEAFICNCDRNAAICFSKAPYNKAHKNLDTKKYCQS

Cc1ccc(NC(=O)c2ccc3c(c2)OCCO3)nc1
EC50 [1]: 11.3 µM (active)
EC50 [2]: 8.65 µM (inconclusive)
AC50 (HEK293): 2.56 µM (active)
AC50 [3]: 186 µM (active)

CCN1CCN(C(=S)c2ccc(Br)cc2)CC1
IC50 [4]: 39.4 µM (inactive)
IC50 [5]: 0.942 µM (active)
AC50 (Cytochrome P450 3A4): 17.8 µM (inconclusive)
IC50 [6]: 1.88 µM (active)

CCOc1cc(/C=C2\NC(=S)N(c3c(C)n(C)n(-c4ccccc4)c3=O)C2=O)ccc1O
IC50 [7]: 9.31 µM (active)
IC50 (Prothrombin): 39.7 µM (active)
IC50 [8]: 27.9 µM (active)
IC50 (Large T antigen): 5.37 µM (active)

O=C(Nc1cc(Cl)cc(Cl)c1)c1coc(=O)c(Br)c1
IC50 [9]: > 20 µM (inactive)
IC50 [10]: 8.37 µM (active)
EC50 [11]: 15.1 µM (active)

O=C(CSc1nnnn1-c1ccc2c(c1)OCCO2)Nc1nc2c(s1)CCCC2
IC50 [12]: 1.6 µM (active)

Cn1nc([N+](=O)[O-])nc1Oc1ccc(C(C)(C)C)cc1
EC50 [13]: > 60 µM (inconclusive)
IC50 [9]: 9.25 µM (active)
IC50 [10]: 12.7 µM (active)
EC50 [14]: 0.201 µM (active)
EC50 [11]: > 53 µM (inactive)

COc1cc(NC(=S)N2CCN(C)CC2)c(OC)cc1Cl
IC50 [4]: > 80 µM (inactive)
IC50 [5]: 4 µM (active)
IC50 [6]: 7.71 µM (active)

COc1ccc(-n2nc3ccc(N)cc3n2)cc1Cl
IC50 [15]: > 100 µM (inactive)
CC50 [16]: 47.1 µM (active)

COc1ccc(CCN(C)C(=O)c2cc(-c3ccc(C)cc3)nc3ccccc23)cc1OC
IC50 [17]: 0.59 µM (active)

CC(=NNC(=S)N1CCCC1)c1ccccn1
AC50 (HEK293): 0.0151 µM (active)
AC50 [3]: 0.444 µM (active)

O=C(CCNS(=O)(=O)c1ccccc1)NCCSc1ccc(Br)cc1
IC50 [15]: > 100 µM (inactive)

C/C(=N\Nc1nc(N2CCCCCC2)nc(N2CCCCCC2)n1)c1ccccc1
EC50 (Streptococcus): 9.52 µM (active)
IC50 [17]: 1.62 µM (active)
EC50 (Streptokinase A): 5.5 µM (active)
EC50 [18]: 7.16 µM (active)

COc1cc(OC)cc(-c2nnc(Nc3nc4c(F)cccc4s3)o2)c1
IC50 [7]: > 100 µM (inactive)
IC50 (Cysteine protease ATG4B): 5.68 µM (active)
IC50 (Prothrombin): 62.8 µM (active)
EC50 [19]: > 150 µM (inconclusive)
EC50 [20]: > 38 µM (not active)
IC50 (Phospholipase A2): > 80 µM (inactive)
IC50 [8]: 30.1 µM (active)
